# Laboratory results taken from PubChem BioAssay AID2060617 (Molecular Pharmacology Branch, DTP, NCI, 2025).
# pIC50: −log10 of the molar value. Several values for one entry are separate records, joined by “and”; a condition that tells them apart may be missing. Equal values may be shown once.
# Tested on: 485368-065-R4-J2-PDC spheroids with HUVEC/MSC, viability
# Assay: Anticancer human tumor 485368-065-R4-J2-PDC patient-derived pancreatic carcinoma cell line growth inhibition [CLK]
# Settings: for viability, T/C: stronger effect = lower value
# Excerpt: A high-throughput screen of multi-cell type tumor spheroids was designed to identify active combinations of […] and targeted small molecules. Complex spheroids include a stromal component modeled by human endothelial cells (HUVEC) and fibroblasts modeled by human mesenchymal stem cells (MSCs). The concentration ranges selected for each drug and investigational agent were based upon clinically achievable concentrations if the clinical Cmax of the agent was known.
# Compounds. The drugs and investigational agents: cirtuvivint (SM08502; NSC835563), CC-671 (NSC850746), vemurafenib (NSC761431), tapotoclax (NSC804041), sotorasib (NSC818433), adagrasib (NSC831453), MRTX-1133 (NSC836407), BAY2416964 (NSC825713), copanlisib (NSC816437), inavolisib (NSC800729), abemaciclib (NSC768073), osimertinib (NSC779217), entinostat (NSC756642), eltanexor (KPT-8602, NSC794443), venetoclax (NSC766270), ceralasertib (NSC777638), bortezomib (NSC756655), olaparib (NSC753686), talazoparib (NSC767125), alisertib (NSC759677), peposertib (NSC802822), gemcitabine (NSC613327), 5-fluorouracil (NSC19893), SN-38 (NSC673596), oxaliplatin (NSC266046), paclitaxel (NSC125973), and doxorubicin (NSC123127), were obtained from the National Cancer Institute (NCI) Developmental Therapeutics Program Chemical Repository. The FDA-approved anticancer drug set is available from the Developmental Therapeutics Program at https://dtp.cancer.gov/organization/dscb/obtaining/available plates.htm. […] The stock solutions were prepared in dimethyl sulfoxide (DMSO, Sigma-Aldrich, St. Louis, MO, cat. D2650), except for the platinum complexes which were prepared in saline (Quality Biological, Gaithersburg, MD, cat. 114-055-101), at 800-fold the tested concentration and stored at -70 degrees C prior to their use. All drugs and investigational agents were tested over a range starting from a high concentration at or near the clinical Cmax and decreasing in half-log increments. If the clinical Cmax for an agent had not been determined, the highest concentration tested was 10 microM.
# Cell Culture. All cells were maintained in an incubator at 37 degrees C and 5% CO2 with 95% humidity. The PDC lines were cultured according to standard operating procedures established by the NCI PDMR. Briefly, all PDCs were thawed and cultured in Matrigel-coated flasks prepared with a working solution of 1X Ham's F-12 nutrient mix, without supplementation (Invitrogen, Waltham, MA, cat. 11765054), 100 U/mL penicillin-streptomycin (Invitrogen, cat. 15140122), and 2.5% Matrigel (Corning Inc., Corning, NY, cat. 354248) for the first three passages. The 947758-054-R-J2-PDC line was cultured in 6B/Colon 1A media, which includes advanced DMEM/F-12 (Thermo Fisher Scientific, cat. 12634028), 10 mM HEPES (Thermo Fisher Scientific, cat. 15630080), 1X GlutaMAX supplement (Thermo Fisher Scientific, cat. 35050061), 0.1 mg/mL primocin (InvivoGen, cat. ant-pm-2), 10% defined fetal bovine serum, heat inactivated (HyClone Laboratories Inc., cat. SH30070.03HI), 1.25 mM N-Acetyl-L-cysteine (Sigma-Aldrich, cat. A9165), 10 mM nicotinamide (Sigma-Aldrich, cat. N0636), 1X B-27 supplement (Thermo Fisher Scientific, cat. 17504044), 1X N-2 supplement (Thermo Fisher Scientific, cat. 17502048), and 10 microM Y-27632 dihydrochloride (Tocris Bioscience, cat. 1254). The 876862-298-R-J1-PDC was cultured in 6E media, which includes all 6B/Colon 1A media components plus 50% L-WRN conditioned media (ATCC, cat. CRL-3276), 50 ng/mL recombinant human EGF recombinant protein (hEGF; Thermo Fisher Scientific, cat. PHG0311), 10 ng/mL recombinant human fibroblast growth factor 10 (hGFG-10; PeproTech, cat. 100-26), 1 ng/mL recombinant human fibroblast growth factor 2 (hFGF-2; PeproTech, cat. 100-18B), and 1 µM prostaglandin E2 (PGE2; Tocris, cat. 2296). The 227483-062-R1-J1-PDC line was cultured in Panc media, containing all 6E components except hFGF-2, with the addition of 500 nM SB-431542 (Selleckchem, cat. S1067) and 10 nM gastrin (Tocris, cat. 3006). […]
# [1] = curve of first compound, second compound 0.0316 µM
# [2] = curve of first compound, second compound 0.1 µM
# [3] = curve of first compound, second compound 0.316 µM
# [4] = curve of first compound, second compound 1 µM
# [5] = curve of first compound, second compound 3.16 µM
# [6] = curve of first compound, second compound 10 µM
# 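Note: spheroids exposed to compounds for seven days.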
# 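Throughout, for viability, T/C: 100% = DMSO vehicle control wells.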
structure (smiles),measurement,setting,value
NC(=O)C(=Cn1cnc(-c2cc(C(F)(F)F)cc(C(F)(F)F)c2)n1)c1cncnc1 + CNC(=O)c1ccc(Nc2nc(OC3CCCC3)c3c(-c4ccc5nc(C)oc5c4)c[nH]c3n2)c(OC)c1,pIC50,[1],< 5.52
same,pIC50,[2],< 5.52
same,pIC50,[3],< 5.52
same,pIC50,[4],< 5.52
same,pIC50,[5],< 5.52
same,pIC50,[6],5.59
same,"viability, T/C","second compound 0.0316 µM, first compound 0.00949 µM",95%
same,"viability, T/C","second compound 0.0316 µM, first compound 0.03 µM",130%
same,"viability, T/C","second compound 0.0316 µM, first compound 0.0949 µM",179%
same,"viability, T/C","second compound 0.0316 µM, first compound 0.3 µM",195%
same,"viability, T/C","second compound 0.0316 µM, first compound 0.949 µM",176%
same,"viability, T/C","second compound 0.0316 µM, first compound 3 µM",128%
same,"viability, T/C","second compound 0.1 µM, first compound 0.00949 µM",96.4%
same,"viability, T/C","second compound 0.1 µM, first compound 0.03 µM",108%
same,"viability, T/C","second compound 0.1 µM, first compound 0.0949 µM",173%
same,"viability, T/C","second compound 0.1 µM, first compound 0.3 µM",177%
same,"viability, T/C","second compound 0.1 µM, first compound 0.949 µM",171%
same,"viability, T/C","second compound 0.1 µM, first compound 3 µM",97.5%
same,"viability, T/C","second compound 0.316 µM, first compound 0.00949 µM",98.1%
same,"viability, T/C","second compound 0.316 µM, first compound 0.03 µM",116%
same,"viability, T/C","second compound 0.316 µM, first compound 0.0949 µM",160%
same,"viability, T/C","second compound 0.316 µM, first compound 0.3 µM",154%
same,"viability, T/C","second compound 0.316 µM, first compound 0.949 µM",139%
same,"viability, T/C","second compound 0.316 µM, first compound 3 µM",74.3%
same,"viability, T/C","second compound 1 µM, first compound 0.00949 µM",82.2%
same,"viability, T/C","second compound 1 µM, first compound 0.03 µM",114%
same,"viability, T/C","second compound 1 µM, first compound 0.0949 µM",141%
same,"viability, T/C","second compound 1 µM, first compound 0.3 µM",132%
same,"viability, T/C","second compound 1 µM, first compound 0.949 µM",99.4%
same,"viability, T/C","second compound 1 µM, first compound 3 µM",62.5%
same,"viability, T/C","second compound 3.16 µM, first compound 0.00949 µM",80.3%
same,"viability, T/C","second compound 3.16 µM, first compound 0.03 µM",114%
same,"viability, T/C","second compound 3.16 µM, first compound 0.0949 µM",123%
same,"viability, T/C","second compound 3.16 µM, first compound 0.3 µM",113%
same,"viability, T/C","second compound 3.16 µM, first compound 0.949 µM",87.6%
same,"viability, T/C","second compound 3.16 µM, first compound 3 µM",59.3%
same,"viability, T/C","second compound 10 µM, first compound 0.00949 µM",69.4%
same,"viability, T/C","second compound 10 µM, first compound 0.03 µM",98.3%
same,"viability, T/C","second compound 10 µM, first compound 0.0949 µM",124%
same,"viability, T/C","second compound 10 µM, first compound 0.3 µM",98.5%
same,"viability, T/C","second compound 10 µM, first compound 0.949 µM",80.8%
same,"viability, T/C","second compound 10 µM, first compound 3 µM",45.4%
COc1cccc2c1C(=O)c1c(O)c3c(c(O)c1C2=O)CC(O)(C(=O)CO)CC3OC1CC(N)C(O)C(C)O1 (stereo not drawn) + CN1CCN(c2cc(C(=O)Nc3cc4cc(-c5cnn(C)c5)ccc4cn3)ccn2)CC1,pIC50,[1],6.47
same,pIC50,[2],6.67
same,pIC50,[3],7.06
same,pIC50,[4],> 7.50
same,pIC50,[5],> 7.50
same,pIC50,[6],> 7.50
same,"viability, T/C","second compound 0.0316 µM, first compound 0.0316 µM",97.5%
same,"viability, T/C","second compound 0.0316 µM, first compound 0.1 µM",91.9%
same,"viability, T/C","second compound 0.0316 µM, first compound 0.316 µM",51.1%
same,"viability, T/C","second compound 0.0316 µM, first compound 1 µM",22.8%
same,"viability, T/C","second compound 0.0316 µM, first compound 3.16 µM",6.06%
same,"viability, T/C","second compound 0.0316 µM, first compound 10 µM",20.1%
same,"viability, T/C","second compound 0.1 µM, first compound 0.0316 µM",95.9%
same,"viability, T/C","second compound 0.1 µM, first compound 0.1 µM",81.3%
same,"viability, T/C","second compound 0.1 µM, first compound 0.316 µM",34.5%
same,"viability, T/C","second compound 0.1 µM, first compound 1 µM",13.1%
same,"viability, T/C","second compound 0.1 µM, first compound 3.16 µM",5.58%
same,"viability, T/C","second compound 0.1 µM, first compound 10 µM",20.2%
same,"viability, T/C","second compound 0.316 µM, first compound 0.0316 µM",69.8%
same,"viability, T/C","second compound 0.316 µM, first compound 0.1 µM",47.2%
same,"viability, T/C","second compound 0.316 µM, first compound 0.316 µM",12.7%
same,"viability, T/C","second compound 0.316 µM, first compound 1 µM",6.03%
same,"viability, T/C","second compound 0.316 µM, first compound 3.16 µM",8.55%
same,"viability, T/C","second compound 0.316 µM, first compound 10 µM",26.6%
same,"viability, T/C","second compound 1 µM, first compound 0.0316 µM",0.88%
same,"viability, T/C","second compound 1 µM, first compound 0.1 µM",0.73%
same,"viability, T/C","second compound 1 µM, first compound 0.316 µM",1.56%
same,"viability, T/C","second compound 1 µM, first compound 1 µM",5.86%
same,"viability, T/C","second compound 1 µM, first compound 3.16 µM",12.6%
same,"viability, T/C","second compound 1 µM, first compound 10 µM",28.8%
same,"viability, T/C","second compound 3.16 µM, first compound 0.0316 µM",1.17%
same,"viability, T/C","second compound 3.16 µM, first compound 0.1 µM",1.22%
same,"viability, T/C","second compound 3.16 µM, first compound 0.316 µM",2.37%
same,"viability, T/C","second compound 3.16 µM, first compound 1 µM",6.61%
same,"viability, T/C","second compound 3.16 µM, first compound 3.16 µM",14.8%
same,"viability, T/C","second compound 3.16 µM, first compound 10 µM",30.9%
same,"viability, T/C","second compound 10 µM, first compound 0.0316 µM",1.73%
same,"viability, T/C","second compound 10 µM, first compound 0.1 µM",1.28%
same,"viability, T/C","second compound 10 µM, first compound 0.316 µM",2.28%
same,"viability, T/C","second compound 10 µM, first compound 1 µM",8.69%
same,"viability, T/C","second compound 10 µM, first compound 3.16 µM",14.6%
same,"viability, T/C","second compound 10 µM, first compound 10 µM",27.2%
C=C(F)C(=O)N1CCN(c2nc(OCC3CCCN3C)nc3c2CCN(c2cccc4cccc(Cl)c24)C3)CC1CC#N (stereo not drawn),"viability, T/C",compound 0.0316 µM,94.9% and 103%
same,"viability, T/C",compound 0.1 µM,97% and 106%
same,"viability, T/C",compound 0.316 µM,95.6% and 100%
same,"viability, T/C",compound 1 µM,106% and 105%
same,"viability, T/C",compound 3.16 µM,121% and 113%
same,"viability, T/C",compound 10 µM,104% and 126%
same,pIC50,curve of compound,< 5.00
COC1C=CCC(C)C(C)S(=O)(=O)NC(=O)c2ccc3c(c2)N(CC2CCC21)CC1(CCCc2cc(Cl)ccc21)CO3 (stereo not drawn),"viability, T/C",compound 0.0316 µM,92.5% and 105%
same,"viability, T/C",compound 0.1 µM,109% and 93.5%
same,"viability, T/C",compound 0.316 µM,101% and 105%
same,"viability, T/C",compound 1 µM,132% and 123%
same,"viability, T/C",compound 3.16 µM,105%
same,"viability, T/C",compound 10 µM,86.1% and 74.7%
same,pIC50,curve of compound,< 5.00
